Laboratory results from patent US20090023186A1, “USE OF VALPROIC ACID FOR ENHANCING PRODUCTION OF RECOMBINANT PROTEINS IN MAMMALIAN CELLS” (EXCELLGENE SA, priority 2007, published 2009).

Test system: CHO DG44 cells
Assay: Combination with IDMTs, IgG batch yield by ELISA (Example 6)
Assay type: cell-based, Chinese Hamster
Conditions: VPA 0.5 mmol/l; no addition = 100%; day 5 after transfection
Protocol: 10 million suspension-adapted HEK293E cells were resuspended in 0.5 ml of Ex-Cell 293 HEK 293 serum-free medium with 4 mmol/l L-glutamine (Cat. No. 14571C-[…]; Lot No. 6A0093; SAFC Biosciences, Lenexa, Kans., USA, “Ex-Cell” medium; note: “Ex-Cell” medium-as used herein-refers to a medium comprising 4 mmol/l L-glutamine) in a 50-ml filter tube each (TPP AG, Trasadingen, Switzerland; Cat. No. 87050, Lot 20050174). In a separate set, 10 million suspension-adapted CHO DG44 cells were resuspended in 0.5 ml of ProCHO5 serum-free medium with 4 mmol/[…] hypoxanthine and 0.194 g/l thymidine (BioWhittaker (Lonza), Belgium; Cat. No. BE12-[…]; Lot No. 7MB0040; “ProCHO5” medium; note: “ProCHO5” medium-as used herein-refers to a medium comprising 4 mmol/[…] hypoxanthine and 0.194 g/l thymidine) in a 50-ml filter tube each (TPP AG, Trasadingen, Switzerland; Cat. No. 87050, Lot 20050174). Then 12.5 μg plasmid DNA at a concentration of 1 μg/μl was added in each tube with the following composition 50% (6.25 μg) p-LC (SEQ ID NO: 1) 50% (6.25 μg) p-HC (SEQ ID NO: 3). Plasmid p-LC comprises the genetic information for the production of the light chain of an IgG antibody, plasmid p-HC comprises the genetic information for the production of the heavy chain of an IgG antibody. The particular vector constructs used in the present invention can also be obtained from the inventors. The inventors can be contacted via e-mail at […]. Moreover, commercial services do exist that produce any desired nucleotide sequence even comprising several kilobase pairs including complete expression cassettes in plasmid backgrounds (e.g., Invitrogen, Carlsbad, USA; Geneart, Germany.) Thus, providing the genetic sequence information of the plasmids should enable one of ordinary skill in the art to order the plasmids of the present invention at one of the commercial services listed. After shortly mixing the DNA with the cells by gentle shaking, 25 μg of 25-kd linear polyethyleneimine (“PEI”; Polysciences, Eppelheim, Germany; [2]) were added at a concentration of 1 μg/μl to each of the tubes. After shortly mixing by gentle shaking, the filter tubes containing the cells together with the DNA and PEI were transferred into an orbital shaker (Kühner Shaker Cabinet ISF-4-W, “Kühner shaker”, Kühner AG, Birsfelden, Switzerland), and the cells were incubated for 4 hours at 37° C. in a 5% CO2 atmosphere under shaking at 180 rpm. After that time, 4.5 ml of Ex-Cell medium were added to each of the filter tubes containing HEK 293 cells and 4.5 ml of Pro-CHO5 were added to each of the filter tubes containing CHO DG44 cells. Then, valproic acid was added to each of the tubes at the corresponding final concentration. In addition, the following chemicals were added to the corresponding tubes at a final concentration of: […] Azacytidine was purchased from Sigma-Aldrich Chemie GmbH, Industriestrasse 25, CH-9471 Buchs SG, Catalog Number A1287-1 VL. RG108 was purchased from Sigma-Aldrich Chemie GmbH, Industriestrasse 25, CH-9471 Buchs SG, Catalog Number R8279-10MG. The cells then were returned into the Kuhner shaker and incubated at 37° C. in a 5% CO2 atmosphere under shaking at 180 rpm. […] In short, Goat anti-human kappa light chain IgG (Biosource) was used for coating the ELISA-plates, and with AP-conjugated goat anti-human gamma chain IgG (Biosource) the synthesized IgG1 was detected. […] Absorption was measured at 405 nm against 490 nm using a microplate reader (SPECTRAmaxTM340; Molecular Devices, Palo Alto, Calif., USA).

## CCCC(CCC)C(=O)O [VPA, valproic acid]
  Fold increase in batch yield over control: 170% ± 20%
